The source of these data is ChEMBL document CHEMBL1201862, “PubChem BioAssay data set” (2004).

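All cell lines were grown in 96-well plates and treated with compound for 48 hours. GI50 marks 50% less growth.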 Active and inactive are the calls of the source. No stated cut-off is given here; in the data, active = GI50 up to about 1.1 µM and inactive = higher.

Among the test systems are A498; A549; BT-549; COLO 205; EKVX; HCT-15; KM12; Malme-3M; NCI-H23; NCI/ADR-RES; PC-3; RXF 393; SK-MEL-28; SN12C; SW-620; UACC-257; UACC-62; UO-31; NCI-H460.
What all share (assay): inhibition of tumour cell growth, NCI panel, 48 h

As for `CC(NNC(=O)c1ccncc1)c1ccccc1` (centres undefined), the GI50 is > 100 µM (inactive) in the experiment on A498; > 100 µM (inactive) in the experiment on A549; > 100 µM (inactive) with BT-549; > 100 µM (inactive) in the experiment with COLO 205; > 100 µM (inactive) in the experiment on EKVX; more than 100 µM in the experiment with HCT-15. The GI50 with KM12, with Malme-3M, in the experiment on NCI-H23, in the experiment on NCI/ADR-RES, with PC-3 and with RXF 393 was > 100 µM (inactive) throughout. Further, the GI50 in the experiment on SK-MEL-28, with SN12C, in the experiment on SW-620, in the experiment on UACC-257, in the experiment with UACC-62 and in the experiment with UO-31 was > 100 µM (inactive) each time.
`Cc1cc(S(=O)(=O)Nc2nc3cccnc3[nH]2)c(S)cc1Cl`: the GI50 in the experiment on A498 is > 100 µM (inactive); with A549, 75 µM (inactive); with BT-549, > 100 µM (inactive); in the experiment with COLO 205 it was > 100 µM (inactive); with EKVX, > 100 µM (inactive); in the experiment with HCT-15, 91 µM. The GI50 with KM12 is > 100 µM (inactive); with Malme-3M, > 100 µM (inactive); with NCI-H23, 97.5 µM (inactive); with NCI-H460, 73.5 µM (inactive); with NCI/ADR-RES, > 100 µM (inactive); with PC-3 it was 92.3 µM (inactive). Also, the GI50 in the experiment on RXF 393 was > 100 µM (inactive); with SK-MEL-28, > 100 µM (inactive); with SN12C, > 100 µM (inactive); in the experiment with SW-620, > 100 µM (inactive); with UACC-257, > 100 µM (inactive); with UACC-62, 85.1 µM (inactive).
`O=C(O)CSc1nc2ccccc2[nH]1`: the GI50 in the experiment on A498 was > 100 µM (inactive); with A549 it was > 100 µM (inactive); in the experiment with BT-549, > 100 µM (inactive); with EKVX, > 100 µM (inactive); in the experiment on HCT-15, more than 100 µM; in the experiment on KM12, > 100 µM (inactive). The GI50 with Malme-3M, with NCI-H23, in the experiment on NCI-H460, in the experiment on NCI/ADR-RES, in the experiment on PC-3 and in the experiment with RXF 393 was > 100 µM (inactive) each time. Further, the GI50 in the experiment with SK-MEL-28, in the experiment with SN12C, in the experiment with SW-620, with UACC-257, in the experiment on UACC-62 and with UO-31 was > 100 µM (inactive) throughout.
In the case of `C=CCOc1ccc(N)c([N+](=O)[O-])c1`, the GI50 was 33.3 µM (inactive) in the experiment with A498; > 100 µM (inactive) in the experiment with A549; > 100 µM (inactive) with BT-549; > 100 µM (inactive) with COLO 205; > 100 µM (inactive) in the experiment with EKVX; more than 100 µM in the experiment on HCT-15. In addition, the GI50 with KM12, with Malme-3M, with NCI-H23, in the experiment on NCI/ADR-RES, with PC-3 and in the experiment with RXF 393 was > 100 µM (inactive) throughout. For the same compound, the GI50 was > 100 µM (inactive) in the experiment with SK-MEL-28; > 100 µM (inactive) in the experiment on SN12C; > 100 µM (inactive) in the experiment on SW-620; > 100 µM (inactive) in the experiment with UACC-257; > 100 µM (inactive) in the experiment with UACC-62; 94.4 µM (inactive) with UO-31.
For the compound `CC(=O)OCC1OC(n2c(-c3ccccc3)c(/N=N/c3ccc(C)cc3)c(C)c(C#N)c2=S)C(OC(C)=O)C(OC(C)=O)C1OC(C)=O` (centres undefined), the GI50 was 2.78 µM (inactive) in the experiment on A498; 9.62 µM (inactive) in the experiment on A549; 6.44 µM (inactive) in the experiment with BT-549; 23.1 µM (inactive) with COLO 205; 21.1 µM in the experiment on HCT-15; 8.28 µM (inactive) with KM12. Further, the GI50 with Malme-3M was > 10 µM (inactive); with NCI-H23, 13.4 µM (inactive); in the experiment on NCI-H460, 10.8 µM (inactive); in the experiment with NCI/ADR-RES it was 7.35 µM (inactive); with PC-3 it was > 10 µM (inactive); in the experiment on RXF 393, 16.2 µM (inactive). In addition, the GI50 with SK-MEL-28 was 26.4 µM (inactive); in the experiment with SN12C it was 6.35 µM (inactive); with SW-620 it was 2.31 µM (inactive); in the experiment with UACC-257, 32.1 µM (inactive); in the experiment with UO-31, > 10 µM (inactive).
For `Cc1cn([C@H]2[C@@H](CO)C[C@H]2O)c(=O)[nH]c1=O`, the GI50 with A498 is > 100 µM (inactive); in the experiment on A549 it was > 100 µM (inactive); with BT-549, > 100 µM (inactive); with COLO 205, > 100 µM (inactive); with EKVX it was > 100 µM (inactive); in the experiment on HCT-15, more than 100 µM. For the same compound, the GI50 in the experiment with KM12, in the experiment on Malme-3M, with NCI-H23, in the experiment with NCI-H460, with NCI/ADR-RES and with PC-3 was > 100 µM (inactive) in each case. The GI50 in the experiment with RXF 393 is > 100 µM (inactive); in the experiment on SK-MEL-28, > 100 µM (inactive); in the experiment with SN12C, > 100 µM (inactive); with SW-620 it was > 100 µM (inactive); in the experiment with UACC-257 it was 50.4 µM (inactive); in the experiment on UO-31, > 100 µM (inactive).
Turning to `COc1ccc2oc(=N)c(C(=O)Nc3ccccn3)cc2c1`, the GI50 was > 100 µM (inactive) with A498; > 100 µM (inactive) in the experiment with A549; > 100 µM (inactive) in the experiment on BT-549; > 100 µM (inactive) in the experiment on COLO 205; 62.4 µM (inactive) with EKVX; more than 100 µM in the experiment on HCT-15. Further, the GI50 was > 100 µM (inactive) with KM12; 61.2 µM (inactive) in the experiment with Malme-3M; > 100 µM (inactive) in the experiment with NCI-H23; > 100 µM (inactive) with NCI-H460; > 100 µM (inactive) with NCI/ADR-RES; > 100 µM (inactive) in the experiment with PC-3. The GI50 in the experiment on RXF 393 was > 100 µM (inactive); in the experiment on SK-MEL-28, > 100 µM (inactive); in the experiment with SN12C it was > 100 µM (inactive); in the experiment on SW-620 it was > 100 µM (inactive); in the experiment with UACC-257, > 100 µM (inactive); in the experiment with UACC-62, 71.4 µM (inactive).
Take `CCOc1cc(C2CC(c3ccc(NS(=O)(=O)c4cc([N+](=O)[O-])ccc4C)cc3)=NN2)ccc1O` (centres undefined): the GI50 with A498 is 22.3 µM (inactive); in the experiment with A549, 29 µM (inactive); in the experiment with BT-549, 21.1 µM (inactive); in the experiment with COLO 205, 22.3 µM (inactive); in the experiment with EKVX, 21.4 µM (inactive); in the experiment with HCT-15 it was 20.5 µM. Further, the GI50 in the experiment on Malme-3M was 25 µM (inactive); in the experiment on NCI-H23, 28 µM (inactive); in the experiment on NCI/ADR-RES, 24.2 µM (inactive); with PC-3 it was 31 µM (inactive); in the experiment with RXF 393, 18.6 µM (inactive); with SK-MEL-28, 32.4 µM (inactive). For the same compound, the GI50 with SN12C is 20 µM (inactive); in the experiment with SW-620 it was 32.8 µM (inactive); in the experiment on UACC-62, 14 µM (inactive); in the experiment on UO-31, 27.8 µM (inactive).
Regarding `CCCCSC1=N/C(=C\c2ccc(N(C)C)cc2)C(NN)=N1`, the GI50 in the experiment on A498 is > 100 µM (inactive); in the experiment on A549, > 100 µM (inactive); with BT-549 it was > 100 µM (inactive); in the experiment on EKVX it was > 100 µM (inactive); in the experiment with HCT-15 it was more than 100 µM; with KM12, > 100 µM (inactive). For the same compound, the GI50 in the experiment on Malme-3M, with NCI-H23, with NCI-H460, in the experiment on NCI/ADR-RES, in the experiment on PC-3 and with RXF 393 was > 100 µM (inactive) in each case. For the same compound, the GI50 in the experiment with SK-MEL-28, in the experiment with SN12C, with SW-620, in the experiment on UACC-257 and with UACC-62 was > 100 µM (inactive) throughout.
Take `Cc1sc2ccccc2[n+]1CCC(=O)O`: the GI50 was > 100 µM (inactive) in the experiment with A498; > 100 µM (inactive) in the experiment with A549; > 100 µM (inactive) in the experiment on BT-549; > 100 µM (inactive) in the experiment on COLO 205; > 100 µM (inactive) with EKVX; more than 100 µM with HCT-15. The GI50 with KM12, in the experiment on Malme-3M, with NCI-H23, in the experiment on NCI-H460, with NCI/ADR-RES and with PC-3 was > 100 µM (inactive) throughout. The GI50 in the experiment with RXF 393, with SK-MEL-28, in the experiment with SN12C, in the experiment on SW-620, in the experiment with UACC-257 and in the experiment with UACC-62 was > 100 µM (inactive) in each case.
Regarding `O=C(OCc1ccccc1)N(CCCCN(CCCNC(=O)C(F)(F)F)C(=O)OCc1ccccc1)CCCNC(=O)C(F)(F)F`, the GI50 in the experiment with A498 was > 100 µM (inactive); with A549, > 66.8 µM (inactive); with BT-549, > 100 µM (inactive); in the experiment on COLO 205, > 88.1 µM (inactive); in the experiment with EKVX, > 100 µM (inactive); with HCT-15, more than 100 µM. The GI50 with KM12 was > 100 µM (inactive); in the experiment with NCI-H23, > 100 µM (inactive); in the experiment on NCI-H460 it was > 83.6 µM (inactive); in the experiment with NCI/ADR-RES, 22.5 µM (inactive); in the experiment on PC-3 it was 36.9 µM (inactive); in the experiment on RXF 393, > 100 µM (inactive). Besides, the GI50 in the experiment with SK-MEL-28 is > 100 µM (inactive); with SN12C, > 100 µM (inactive); with SW-620, > 100 µM (inactive); in the experiment on UACC-257, > 100 µM (inactive); in the experiment with UACC-62, > 100 µM (inactive); with UO-31 it was 3.56 µM (inactive).
